{"source": "patent US20220009920A1", "about": "(GB005, Inc., priority 2020, published 2022)", "assay_in_all_cases": "Large panel kinase profiling", "format_in_all_cases": "biochemical", "settings_in_all_cases": "1 μM test article, 1 mM ATP", "key": {"AKT3": {"biological_target": "AKT3 (Homo sapiens, UniProt Q9Y243)", "sequence (Q9Y243 whole entry)": "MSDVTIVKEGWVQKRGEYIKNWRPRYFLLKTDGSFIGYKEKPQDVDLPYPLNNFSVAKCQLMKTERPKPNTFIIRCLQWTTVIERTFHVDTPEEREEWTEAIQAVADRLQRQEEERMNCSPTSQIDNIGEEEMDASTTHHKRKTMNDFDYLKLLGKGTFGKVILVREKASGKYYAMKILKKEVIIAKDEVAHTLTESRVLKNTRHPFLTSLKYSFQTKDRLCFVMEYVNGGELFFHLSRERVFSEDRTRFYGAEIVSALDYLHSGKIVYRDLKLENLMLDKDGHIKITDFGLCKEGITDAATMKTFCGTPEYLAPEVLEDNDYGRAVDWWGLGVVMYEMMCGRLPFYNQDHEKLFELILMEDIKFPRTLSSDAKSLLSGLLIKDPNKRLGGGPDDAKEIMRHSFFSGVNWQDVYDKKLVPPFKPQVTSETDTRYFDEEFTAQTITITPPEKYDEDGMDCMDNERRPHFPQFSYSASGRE", "method_in_brief": "(§1)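 Reactions contain 1 mM ATP and 1 μM test article; the CSox peptide sensor reports phosphorylation as fluorescence gain. Temperature is held at 30° C. while signal (360 nm excitation, 485 nm emission) is recorded every 1 min.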"}, "GAK": {"biological_target": "T1, GAK (Homo sapiens, UniProt O14976)", "T1 construct": "AssayQuant Technologies, Inc. (service provider)", "T1 sequence (O14976 1-1311)": "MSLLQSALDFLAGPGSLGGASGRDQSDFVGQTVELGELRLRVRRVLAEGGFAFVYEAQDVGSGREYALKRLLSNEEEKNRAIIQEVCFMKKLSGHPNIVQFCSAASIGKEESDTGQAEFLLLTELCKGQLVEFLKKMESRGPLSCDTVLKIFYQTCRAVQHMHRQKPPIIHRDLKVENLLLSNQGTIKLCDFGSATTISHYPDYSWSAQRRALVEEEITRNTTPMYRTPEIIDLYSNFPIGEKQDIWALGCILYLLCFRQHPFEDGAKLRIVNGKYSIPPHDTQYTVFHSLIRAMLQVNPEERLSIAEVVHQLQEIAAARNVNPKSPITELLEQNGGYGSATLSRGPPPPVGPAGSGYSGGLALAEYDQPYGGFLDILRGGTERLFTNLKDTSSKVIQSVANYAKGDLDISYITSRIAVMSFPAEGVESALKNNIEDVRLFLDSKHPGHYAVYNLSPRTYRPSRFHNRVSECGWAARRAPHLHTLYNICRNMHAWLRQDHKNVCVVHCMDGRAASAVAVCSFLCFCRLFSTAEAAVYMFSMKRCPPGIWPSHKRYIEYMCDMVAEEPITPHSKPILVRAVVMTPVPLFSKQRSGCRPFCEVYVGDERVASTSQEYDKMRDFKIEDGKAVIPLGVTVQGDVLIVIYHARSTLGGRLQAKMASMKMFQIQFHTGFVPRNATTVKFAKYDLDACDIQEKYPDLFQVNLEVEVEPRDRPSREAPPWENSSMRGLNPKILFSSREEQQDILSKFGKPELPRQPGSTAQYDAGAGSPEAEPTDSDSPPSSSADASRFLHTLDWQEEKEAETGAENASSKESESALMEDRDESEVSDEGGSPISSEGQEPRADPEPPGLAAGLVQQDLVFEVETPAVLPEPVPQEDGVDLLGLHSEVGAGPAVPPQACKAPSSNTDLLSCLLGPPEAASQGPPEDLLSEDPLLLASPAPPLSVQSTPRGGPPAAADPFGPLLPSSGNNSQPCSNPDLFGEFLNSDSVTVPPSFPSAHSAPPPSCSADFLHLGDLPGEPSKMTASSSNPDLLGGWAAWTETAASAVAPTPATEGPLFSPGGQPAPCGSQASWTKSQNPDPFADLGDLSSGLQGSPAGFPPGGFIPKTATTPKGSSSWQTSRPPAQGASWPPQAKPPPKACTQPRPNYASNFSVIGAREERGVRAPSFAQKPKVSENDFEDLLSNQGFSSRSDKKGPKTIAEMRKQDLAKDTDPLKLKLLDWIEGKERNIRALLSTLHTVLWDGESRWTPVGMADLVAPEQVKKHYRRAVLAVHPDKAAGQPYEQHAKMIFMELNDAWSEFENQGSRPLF", "method_in_brief": "as §1"}, "MAP3K7": {"biological_target": "T2, MAP3K7 (Homo sapiens, UniProt O43318)", "T2 construct": "AssayQuant Technologies, Inc. (service provider)", "T2 sequence (O43318 1-303 limits assumed)": "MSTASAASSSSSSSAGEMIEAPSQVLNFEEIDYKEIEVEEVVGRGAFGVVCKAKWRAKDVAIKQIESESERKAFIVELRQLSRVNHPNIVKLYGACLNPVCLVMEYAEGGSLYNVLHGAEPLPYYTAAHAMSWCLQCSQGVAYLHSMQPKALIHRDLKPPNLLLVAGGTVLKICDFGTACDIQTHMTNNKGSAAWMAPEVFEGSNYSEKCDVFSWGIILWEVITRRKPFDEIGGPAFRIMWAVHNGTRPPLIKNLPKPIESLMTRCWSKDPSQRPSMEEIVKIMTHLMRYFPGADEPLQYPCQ", "method_in_brief": "as §1"}, "CDK5/P35": {"biological_target": "T3, CDK5/P35 (Homo sapiens, UniProt Q00535)", "T3 construct": "AssayQuant Technologies, Inc. (ran the panel)", "T3 sequence (Q00535 whole entry, species assumed)": "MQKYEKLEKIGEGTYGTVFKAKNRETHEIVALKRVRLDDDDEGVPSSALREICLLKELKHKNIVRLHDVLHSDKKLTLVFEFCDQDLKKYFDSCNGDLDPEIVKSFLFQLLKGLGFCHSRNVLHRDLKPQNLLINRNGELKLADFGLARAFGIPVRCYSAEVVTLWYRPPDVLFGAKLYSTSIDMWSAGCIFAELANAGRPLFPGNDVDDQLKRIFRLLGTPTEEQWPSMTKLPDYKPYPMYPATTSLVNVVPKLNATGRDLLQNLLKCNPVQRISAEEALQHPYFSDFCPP", "T3 sequence (Q15078 2-307 partner limits assumed, species assumed)": "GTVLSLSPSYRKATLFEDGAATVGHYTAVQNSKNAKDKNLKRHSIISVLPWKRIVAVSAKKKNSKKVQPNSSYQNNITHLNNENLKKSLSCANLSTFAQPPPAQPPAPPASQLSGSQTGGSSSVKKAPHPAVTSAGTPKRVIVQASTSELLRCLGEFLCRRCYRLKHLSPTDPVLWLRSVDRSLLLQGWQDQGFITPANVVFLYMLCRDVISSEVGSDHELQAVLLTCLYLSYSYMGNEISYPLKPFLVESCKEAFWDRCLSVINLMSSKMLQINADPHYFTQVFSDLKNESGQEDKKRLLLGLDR", "method_in_brief": "as §1"}, "BTK": {"biological_target": "T4, BTK (Homo sapiens, UniProt Q06187)", "T4 construct": "purchased Cama", "T4 sequence (Q06187 whole entry)": "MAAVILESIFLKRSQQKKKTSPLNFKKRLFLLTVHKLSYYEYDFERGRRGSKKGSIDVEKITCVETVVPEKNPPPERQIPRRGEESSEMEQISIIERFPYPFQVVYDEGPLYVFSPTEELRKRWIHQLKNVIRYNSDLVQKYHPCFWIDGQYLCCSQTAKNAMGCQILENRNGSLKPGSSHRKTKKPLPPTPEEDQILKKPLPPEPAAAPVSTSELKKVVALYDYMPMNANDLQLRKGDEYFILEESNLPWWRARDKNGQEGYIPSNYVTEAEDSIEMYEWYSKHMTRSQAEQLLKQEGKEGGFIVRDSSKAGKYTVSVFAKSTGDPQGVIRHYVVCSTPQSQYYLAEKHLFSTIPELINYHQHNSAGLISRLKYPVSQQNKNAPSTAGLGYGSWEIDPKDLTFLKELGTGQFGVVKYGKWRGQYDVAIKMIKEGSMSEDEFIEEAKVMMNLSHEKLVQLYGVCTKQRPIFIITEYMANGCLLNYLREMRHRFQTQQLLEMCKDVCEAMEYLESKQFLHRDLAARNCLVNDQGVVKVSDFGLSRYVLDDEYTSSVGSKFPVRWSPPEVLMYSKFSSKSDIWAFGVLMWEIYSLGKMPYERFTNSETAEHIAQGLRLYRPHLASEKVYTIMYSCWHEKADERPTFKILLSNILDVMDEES", "method_in_brief": "as §1"}, "PRKCZ/PKCZ": {"biological_target": "T5, PRKCZ/PKCZ (Homo sapiens, UniProt Q05513)", "T5 sequence (Q05513 1-592)": "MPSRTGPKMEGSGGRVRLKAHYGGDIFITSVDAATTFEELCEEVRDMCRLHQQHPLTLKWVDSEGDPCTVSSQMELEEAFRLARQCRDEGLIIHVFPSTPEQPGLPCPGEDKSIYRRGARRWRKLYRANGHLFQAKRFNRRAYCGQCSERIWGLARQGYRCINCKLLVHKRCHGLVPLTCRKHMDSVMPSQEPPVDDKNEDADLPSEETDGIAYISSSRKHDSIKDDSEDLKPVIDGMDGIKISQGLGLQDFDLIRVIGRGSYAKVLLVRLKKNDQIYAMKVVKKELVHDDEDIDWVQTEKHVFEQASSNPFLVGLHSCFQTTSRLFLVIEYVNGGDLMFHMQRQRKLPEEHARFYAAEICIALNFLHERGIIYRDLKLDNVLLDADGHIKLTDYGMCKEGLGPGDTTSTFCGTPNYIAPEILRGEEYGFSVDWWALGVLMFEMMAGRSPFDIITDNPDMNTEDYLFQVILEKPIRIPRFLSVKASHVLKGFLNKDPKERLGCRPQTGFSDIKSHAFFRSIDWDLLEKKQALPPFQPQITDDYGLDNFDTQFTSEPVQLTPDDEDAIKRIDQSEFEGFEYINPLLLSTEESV", "method_in_brief": "as §1"}}, "data": [{"molecule": "C=CC(=O)N1CCCC(c2c(F)cc(C(N)=O)c3[nH]c4c(c23)CCCCC4)C1", "note": "(single isomer, unassigned) [Compound 5-6]", "values": [{"measurement": "inhibition at 1 µM", "setting": "AKT3", "value": -14.4, "unit": "%"}, {"measurement": "inhibition at 1 µM", "setting": "GAK", "value": 17.9, "unit": "%"}, {"measurement": "inhibition at 1 µM", "setting": "MAP3K7", "value": -19.6, "unit": "%"}, {"measurement": "inhibition at 1 µM", "setting": "CDK5/P35", "value": -13.2, "unit": "%"}, {"measurement": "inhibition at 1 µM", "setting": "BTK", "value": 92.8, "unit": "%"}, {"measurement": "inhibition at 1 µM", "setting": "PRKCZ/PKCZ", "value": -4, "unit": "%"}]}, {"molecule": "C=CC(=O)N1CCC[C@@H](c2c(F)cc(C(N)=O)c3[nH]c4c(c23)CCC4)C1", "note": "[Compound 10-2, (S)-8-(1-acryloylpiperidin-3-yl)-7-fluoro-1,2,3,4-tetrahydrocyclo-penta[b]indole-5-carboxamide]", "values": [{"measurement": "inhibition at 1 µM", "setting": "AKT3", "value": -19.4, "unit": "%"}, {"measurement": "inhibition at 1 µM", "setting": "GAK", "value": -28.4, "unit": "%"}, {"measurement": "inhibition at 1 µM", "setting": "MAP3K7", "value": 13.2, "unit": "%"}, {"measurement": "inhibition at 1 µM", "setting": "CDK5/P35", "value": 2.9, "unit": "%"}, {"measurement": "inhibition at 1 µM", "setting": "BTK", "value": 93.8, "unit": "%"}, {"measurement": "inhibition at 1 µM", "setting": "PRKCZ/PKCZ", "value": -4.2, "unit": "%"}]}, {"molecule": "C=CC(=O)N1CCC[C@@H](c2c(F)cc(C(N)=O)c3[nH]c4c(c23)CC2(CC4)CC2)C1", "note": "[Compound 6-2, (S)-5-(1-acryloylpiperidin-3-yl)-6-fluoro-1,2,4,9-tetrahydrospiro[carbazole-3,1′-cyclopropane]-8-carboxamide]", "values": [{"measurement": "inhibition at 1 µM", "setting": "AKT3", "value": -16.3, "unit": "%"}, {"measurement": "inhibition at 1 µM", "setting": "GAK", "value": -3.7, "unit": "%"}, {"measurement": "inhibition at 1 µM", "setting": "MAP3K7", "value": 10, "unit": "%"}, {"measurement": "inhibition at 1 µM", "setting": "CDK5/P35", "value": -37.5, "unit": "%"}, {"measurement": "inhibition at 1 µM", "setting": "BTK", "value": 97.4, "unit": "%"}, {"measurement": "inhibition at 1 µM", "setting": "PRKCZ/PKCZ", "value": 8.5, "unit": "%"}]}]}
